Where only a bound is given, the exact number is not on record here.

This assay addresses T1, CDK2/CyclinA (Homo sapiens, UniProt P24941).
T1 construct: purchased Upstate Biotechnology
In words: Measurement of CDK2 kinase inhibitory activity (IC50), 33P-ATP / histone H1 filter assay. Format: biochemical. The method, then:
Measurement of CDK2 Kinase Inhibitory Activity (IC50)
Compounds of the invention were tested for kinase inhibitory activity using the following protocol.
1.7 μl of active CDK2/CyclinA (Upstate Biotechnology, 10 U/μl) is diluted in assay buffer (250 μl of 10× strength assay buffer (200 mM MOPS pH 7.2, 250 mM β-glycerophosphate, 50 mM EDTA, 150 mM MgCl2), 11.27 μl 10 mM ATP, 2.5 μl 1M DTT, 25 μl 100 mM sodium orthovanadate, 708.53 μl H2O), and 10 μl mixed with 10 μl of histone substrate mix (60 μl bovine histone H1 (Upstate Biotechnology, 5 mg/ml), 940 μl H2O, 35 μCi γ^33P-ATP) and added to 96 well plates along with 5 μl of various dilutions of the test compound in DMSO (up to 2.5%). The reaction is allowed to proceed for 5 hours before being stopped with an excess of ortho-phosphoric acid (30 μl at 2%).
γ^33P-ATP which remains unincorporated into the histone H1 is separated from phosphorylated histone H1 on a Millipore MAPH filter plate. The wells of the MAPH plate are wetted with 0.5% orthophosphoric acid, and then the results of the reaction are filtered with a Millipore vacuum filtration unit through the wells. Following filtration, the residue is washed twice with 200 μl of 0.5% orthophosphoric acid. Once the filters have dried, 25 μl of Microscint 20 scintillant is added, and then counted on a Packard Topcount for 30 seconds.

Consider `O=C(Nc1ccc(S(=O)(=O)N2CCOCC2)cc1)c1n[nH]c2ccccc12` [Example 10, N-[4-(morpholine-4-sulphonyl)phenyl]-1H-indazole-3-carboxamide], for which the inhibition (in general, the relative decrease from the control value, in per cent) at 50 µM is not below 50%.
The value for `CS(=O)(=O)N1CCC(NC(=O)c2n[nH]c3ccccc23)CC1` [Example 69, 1H-Indazole-3-carboxylic acid (1-methanesulphonyl-piperidin-4-yl)-amide] was not below 50%; that for `NS(=O)(=O)c1ccc(NC(=O)c2n[nH]c3ccc(I)cc23)cc1` [Example 12, N-(4-aminosulphonylphenyl)-5-iodo-1H-indazole-3-carboxamide] was not below 50%; that for `CCCCNC(=O)NS(=O)(=O)c1ccc(NC(=O)c2n[nH]c3ccccc23)cc1` [Example 35] was not below 50%.
The value for `CNS(=O)(=O)Cc1ccc(NC(=O)c2n[nH]c3ccc(-c4c(C)noc4C)cc23)cc1` [Example 22, 5-(3,5-Dimethyl-isoxazol-4-yl)-1H-indazole-3-carboxylic acid (4-methylsulphamoylmethyl-phenyl)-amide] was not below 50%; that for `CS(=O)(=O)c1cccc(NC(=O)c2n[nH]c3ccc([N+](=O)[O-])cc23)c1` [Example 78] was not below 50%; that for `COc1ccc(NC(=O)c2n[nH]c3ccc(I)cc23)cn1` [Example 39] was not below 50%.
The same measure for `O=C(Nc1cccnc1)c1n[nH]c2ccc(I)cc12` [Example 40]: not below 50%.
Compound `O=C(Nc1ccccc1)c1n[nH]c2ccc([N+](=O)[O-])cc12` [Example 55] showed an inhibition at 50 µM not below 50%.
The value for `O=C(Nc1ccccc1)c1n[nH]c2ccc(N3CCOCC3)cc12` [Example 17, 5-Morpholin-4-yl-1H-indazole-3-carboxylic acid phenylamide] was not below 50%.
With `O=C(Nc1ccc(F)cc1)c1n[nH]c2cc(Br)ccc12` [Example 73, 6-Bromo-1H-indazole-3-carboxylic acid (4-fluoro-phenyl)-amide], the inhibition at 50 µM is not below 50%.
The value for `CS(=O)(=O)c1cccc(NC(=O)c2n[nH]c3ccccc23)c1` [Example 9, N-[3-methanesulphonylphenyl]-1H-indazole-3-carboxamide] was not below 50%; that for `O=C(Nc1ccccc1)c1n[nH]c2ccc(N3CCCS3(=O)=O)cc12` [Example 86, 5-(1,1-Dioxo-1lambda*6*-isothiazolidin-2-yl)-1H-indazole-3-carboxylic acid phenylamide] was not below 50%; that for `Cc1ccc2[nH]nc(C(=O)Nc3ccc(F)cc3)c2c1` [Example 72, 5-Methyl-1H-indazole-3-carboxylic acid (4-fluoro-phenyl)-amide] was not below 50%.
The same measure for `CNS(=O)(=O)Cc1ccc(NC(=O)c2n[nH]c3ccc(-c4cc5ccccc5o4)cc23)cc1` [Example 24, 5-Benzofuran-2-yl-1H-indazole-3-carboxylic acid (4-methylsulphamoylmethyl-phenyl)-amide]: not below 50%.
Compound `NS(=O)(=O)c1ccc(NC(=O)c2n[nH]c3ccccc23)cc1` [Example 26, 1H-Indazole-3-carboxylic acid (4-sulphamoyl-phenyl)-amide] had an inhibition at 50 µM not below 50%.
`O=C(Nc1ccccc1)c1n[nH]c2ccc(CCc3ccccc3)cc12` [Example 87, 5-Phenethyl-1H-indazole-3-carboxylic acid phenylamide] came in with an inhibition at 50 µM not below 50%.
As to `O=C(Nc1ccc(N2CCCC2=O)cc1)c1n[nH]c2ccccc12` [Example 6, N-[4-(2-oxopyrrolidin-1-yl)phenyl]-1H-indazole-3-carboxamide], the inhibition at 50 µM is not below 50%.
As for `CNS(=O)(=O)Cc1ccc(NC(=O)c2n[nH]c3ccc(I)cc23)cc1` [Example 13], the inhibition at 50 µM was not below 50%.
For `O=C(Nc1ccc(N2CCOCC2)cc1)c1n[nH]c2ccccc12` [Example 54], the inhibition at 50 µM is not below 50%.
Take `Cc1ccc(NC(=O)c2n[nH]c3ccc(I)cc23)nn1` [Example 50]: the inhibition at 50 µM is not below 50%.
The same measure for `CN1CCC(NC(=O)c2n[nH]c3ccc(Cl)cc23)CC1` [Example 43]: not below 50%; for `CC(C)(C)OC(=O)N1CCC(NC(=O)c2n[nH]c3ccccc23)CC1` [Example 57]: not below 50%.
With `CC(=O)Nc1ccc(NC(=O)c2n[nH]c3ccc(I)cc23)cn1` [Example 59], the inhibition at 50 µM was not below 50%.

Source of the values: US20060135589A1, “1h-Indazole-3-carboxamide compounds as cyclin dependent kinase (cdk) inhibitors” (Astex Technology, Inc., priority 2002, published 2006).
